Data: article PMC9848300, “Discovery of novel enasidenib analogues targeting inhibition of mutant isocitrate dehydrogenase 2 as antileukaemic agents” (Journal of Enzyme Inhibition and Medicinal Chemistry, 2023)

Tests used:
Type in all cases: cell-based
[1] = tested on: K-562; assay: NCI 60 antitumor screening (single dose / five doses); conditions: Homo sapiens, K562; K-562 (leukaemia), single dose 10 μM; read-out: Growth inhibition percentage (GI %)
[2] = tested on: SR; assay: as above; conditions: Homo sapiens; SR (leukaemia), single dose 10 μM; read-out: Growth inhibition percentage (GI %)
[3] = tested on: EKVX; assay: as above; conditions: Homo sapiens; EKVX (non-small cell lung cancer), single dose 10 μM; read-out: Growth inhibition percentage (GI %)
[4] = tested on: HCC-2998; assay: NCI 60 antitumor screening (single dose); conditions: Homo sapiens; HCC-2998 (colon cancer), single dose 10 μM; read-out: Growth inhibition percentage (GI %)
Outline: (§1)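 Test compound added at 10 μM to each of 60 human cancer lines from nine tumour types; growth measured per NCI protocol in triplicate; percent growth converted to inhibition (100 − G%).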

[5] = tested on: HOP-62; assay: NCI 60 antitumor screening (single dose); conditions: Homo sapiens; HOP-62 (non-small cell lung cancer), single dose 10 μM; read-out: Growth inhibition percentage (GI %)
Outline: as §1

[6] = tested on: HS 578T; assay: NCI 60 antitumor screening (single dose); conditions: Homo sapiens; HS 578T (breast cancer), single dose 10 μM; read-out: Growth inhibition percentage (GI %)
Outline: (§2)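 At one concentration (10 μM), compounds are run in triplicate on 60 human cancer lines per the NCI method. Treated-cell growth is recorded as G%. Reported inhibition equals 100 − G%.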

[7] = tested on: KM 12; assay: NCI 60 antitumor screening (single dose); conditions: Homo sapiens, KM12; KM 12 (colon cancer), single dose 10 μM; read-out: Growth inhibition percentage (GI %)
Outline: as §2

[8] = tested on: NCI-H226; assay: NCI 60 antitumor screening (single dose); conditions: Homo sapiens; NCI-H226 (non-small cell lung cancer), single dose 10 μM; read-out: Growth inhibition percentage (GI %)
Outline: as §2

[9] = tested on: NCI-H460; assay: NCI 60 antitumor screening (single dose); conditions: Homo sapiens; NCI-H460 (non-small cell lung cancer), single dose 10 μM; read-out: Growth inhibition percentage (GI %)
Outline: as §1

[10] = tested on: OVCAR-3; assay: NCI 60 antitumor screening (single dose); conditions: Homo sapiens; OVCAR-3 (ovarian cancer), single dose 10 μM; read-out: Growth inhibition percentage (GI %)
Outline: as §2

[11] = tested on: OVCAR-4; assay: NCI 60 antitumor screening (single dose); conditions: Homo sapiens; OVCAR-4 (ovarian cancer), single dose 10 μM; read-out: Growth inhibition percentage (GI %)
Outline: as §2

[12] = tested on: OVCAR-5; assay: NCI 60 antitumor screening (single dose); conditions: Homo sapiens; OVCAR-5 (ovarian cancer), single dose 10 μM; read-out: Growth inhibition percentage (GI %)
Outline: as §1

[13] = tested on: OVCAR-8; assay: NCI 60 antitumor screening (single dose); conditions: Homo sapiens; OVCAR-8 (ovarian cancer), single dose 10 μM; read-out: Growth inhibition percentage (GI %)
Outline: as §2

[14] = tested on: PC-3; assay: NCI 60 antitumor screening (single dose); conditions: Homo sapiens; PC-3 (prostate cancer), single dose 10 μM; read-out: Growth inhibition percentage (GI %)
Outline: as §2

[15] = tested on: SK-OV-3; assay: NCI 60 antitumor screening (single dose); conditions: Homo sapiens; SK-OV-3 (ovarian cancer), single dose 10 μM; read-out: Growth inhibition percentage (GI %)
Outline: as §1

[16] = tested on: SNB-19; assay: NCI 60 antitumor screening (single dose); conditions: Homo sapiens; SNB-19 (CNS cancer), single dose 10 μM; read-out: Growth inhibition percentage (GI %)
Outline: as §2

[17] = tested on: TK-10; assay: NCI 60 antitumor screening (single dose); conditions: Homo sapiens; TK-10 (renal cancer), single dose 10 μM; read-out: Growth inhibition percentage (GI %)
Outline: as §2

[18] = tested on: U251; assay: NCI 60 antitumor screening (single dose); conditions: Homo sapiens, U-251; U251 (CNS cancer), single dose 10 μM; read-out: Growth inhibition percentage (GI %)
Outline: as §1

[19] = tested on: COLO 205; assay: NCI 60 antitumor screening (single dose / five doses); conditions: Homo sapiens; COLO 205 (colon cancer), single dose 10 μM; read-out: Growth inhibition percentage (GI %)
[20] = tested on: HCT-116; assay: as above; conditions: Homo sapiens; HCT-116 (colon cancer), single dose 10 μM; read-out: Growth inhibition percentage (GI %)
[21] = tested on: SF-295; assay: as above; conditions: Homo sapiens; SF-295 (CNS cancer), single dose 10 μM; read-out: Growth inhibition percentage (GI %)
[22] = tested on: LOX IMVI; assay: as above; conditions: Homo sapiens; LOX IMVI (melanoma), single dose 10 μM; read-out: Growth inhibition percentage (GI %)
[23] = tested on: SK-MEL-2; assay: as above; conditions: Homo sapiens; SK-MEL-2 (melanoma), single dose 10 μM; read-out: Growth inhibition percentage (GI %)
[24] = tested on: UACC-257; assay: as above; conditions: Homo sapiens; UACC-257 (melanoma), single dose 10 μM; read-out: Growth inhibition percentage (GI %)
[25] = tested on: IGROV1; assay: as above; conditions: Homo sapiens, IGROV-1; IGROV1 (ovarian cancer), single dose 10 μM; read-out: Growth inhibition percentage (GI %)
[26] = tested on: ACHN; assay: as above; conditions: Homo sapiens; ACHN (renal cancer), single dose 10 μM; read-out: Growth inhibition percentage (GI %)
[27] = tested on: SN 12C; assay: as above; conditions: Homo sapiens, SN12C; SN 12C (renal cancer), single dose 10 μM; read-out: Growth inhibition percentage (GI %)
[28] = tested on: T-47D; assay: as above; conditions: Homo sapiens, T47D; T-47D (breast cancer), single dose 10 μM; read-out: Growth inhibition percentage (GI %)

| Structure (SMILES) | inhibition at 10 µM [1] | inhibition at 10 µM [2] | inhibition at 10 µM [3] | inhibition at 10 µM [4] | inhibition at 10 µM [5] | inhibition at 10 µM [6] | inhibition at 10 µM [7] | inhibition at 10 µM [8] | inhibition at 10 µM [9] | inhibition at 10 µM [10] | inhibition at 10 µM [11] | inhibition at 10 µM [12] | inhibition at 10 µM [13] | inhibition at 10 µM [14] | inhibition at 10 µM [15] | inhibition at 10 µM [16] | inhibition at 10 µM [17] | inhibition at 10 µM [18] | inhibition at 10 µM [19] | inhibition at 10 µM [20] | further results |
| --- | --- | --- | --- | --- | --- | --- | --- | --- | --- | --- | --- | --- | --- | --- | --- | --- | --- | --- | --- | --- | --- |
| COC(=O)C(Cc1ccccc1)Nc1nc(NC(Cc2ccccc2)C(=O)OC)nc(N2CCOCC2)n1 (centres unmarked) [compound 8c, Methyl 2-({4-[(1-methoxy-1-oxo-3-phenylpropan-2-yl)amino]-6-(morpholin-4-yl)-1,3,5-triazin-2-yl}amino)-3-phenylpropanoate] | 8.42% | -0.37% | -4.54% | -9.86% | 2.66% | -1.3% | 0.3% | -1.61% | -6.88% | -11.1% | -6.53% | -6.25% | 0.4% | -2.72% | -2.71% | -3.58% | -3.4% | -5.23% | -4.56% | 0.81% | inhibition at 10 µM [21]: -7.74%; inhibition at 10 µM [22]: -5.03%; inhibition at 10 µM [23]: -11%; inhibition at 10 µM [24]: -3.35%; inhibition at 10 µM [25]: 1.38%; inhibition at 10 µM [26]: -8.95%; inhibition at 10 µM [27]: -3.62%; inhibition at 10 µM [28]: -0.53% |
| O=C(NNc1nc(NNC(=O)c2ccccc2)nc(N2CCOCC2)n1)c1ccccc1 [compound 8d, N'-[4-(morpholin-4-yl)-6-(phenylhydrazido)-1,3,5-triazin-2-yl]benzohydrazide] | -6.16% | 2.07% | 3.9% | -5.88% | -11.8% | -6.14% | -5.4% | 4.42% | -1.86% | -5.45% | -10.6% | -4.08% | 3.15% | -7.68% | -18.5% | 3.32% | -10.8% | -0.3% | -12.9% | -3.34% | inhibition at 10 µM [21]: -0.06%; inhibition at 10 µM [22]: 2.21%; inhibition at 10 µM [23]: -13.4%; inhibition at 10 µM [24]: 1.13%; inhibition at 10 µM [25]: -2.38%; inhibition at 10 µM [26]: -4.4%; inhibition at 10 µM [27]: -6.53%; inhibition at 10 µM [28]: -10.8% |
